Experiments:
[1] = molecular target: N(G),N(G)-dimethylarginine dimethylaminohydrolase 1 (Homo sapiens, UniProt O94760); test: Inhibition of human recombinant DDAH1
[2] = Inhibition of recombinant N-glutathione transferase/human DDAH1 fusion protein

Chain of N(G),N(G)-dimethylarginine dimethylaminohydrolase 1 (O94760 whole entry, the tested form may be a part): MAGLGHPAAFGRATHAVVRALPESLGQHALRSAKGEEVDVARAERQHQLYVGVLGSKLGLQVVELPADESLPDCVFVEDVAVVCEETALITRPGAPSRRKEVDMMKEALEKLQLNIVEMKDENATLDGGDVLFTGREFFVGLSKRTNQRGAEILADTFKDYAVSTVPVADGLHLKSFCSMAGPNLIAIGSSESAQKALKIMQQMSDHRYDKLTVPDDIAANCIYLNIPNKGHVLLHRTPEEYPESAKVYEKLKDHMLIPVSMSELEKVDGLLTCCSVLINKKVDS

IC50 [1] [µM] | Compound | Ki [2] [µM]
640 | N[C@@H](CCS)C(=O)O [L-HOMOCYSTEINE] | –
– | NCCCC[C@H](N)C(=O)O [LYSINE] | 2800

— ChEMBL document CHEMBL1156520, “Inhibition of human dimethylarginine dimethylaminohydrolase-1 by S-nitroso-L-homocysteine and hydrogen peroxide. Analysis, quantification, and implications for hyperhomocysteinemia” (J Biol Chem, 2007)
